Data from the supplement of paper PMC10307832.

Tests used:
Experiment in all cases: relative viability (nuclei count vs DMSO), 5 days (fraction); higher = more cells survive
Obatoclax + Alpelisib = compound: COC1=CC(c2cc3ccccc3[nH]2)=N/C1=C\c1[nH]c(C)cc1C [Obatoclax] + Cc1nc(NC(=O)N2CCC[C@H]2C(N)=O)sc1-c1ccnc(C(C)(C)C(F)(F)F)c1 [Alpelisib] (partner 2 µM)
How it was run: (§1)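 Relative viability divides the nuclei count in treated wells by that in vehicle wells. Lung cancer cell lines were seeded in 1536-well plates, dosed by pin tool the next day, and fixed and stained after 5 days in one step with final 0.05% Triton X-100, 1% formaldehyde and 1 ug/ml Hoechst. Dosing was a single drug or a fixed anchor-drug dose plus five library-drug doses (not always all listed) in √10 steps, and values are medians of duplicate plates imaged at 4×.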

Obatoclax + Bortezomib = compound: COC1=CC(c2cc3ccccc3[nH]2)=N/C1=C\c1[nH]c(C)cc1C [Obatoclax] + CC(C)C[C@H](NC(=O)[C@H](Cc1ccccc1)NC(=O)c1cnccn1)B(O)O [Bortezomib] (partner 0.002 µM)
How it was run: as §1

Bortezomib + Foretinib = compound: CC(C)C[C@H](NC(=O)[C@H](Cc1ccccc1)NC(=O)c1cnccn1)B(O)O [Bortezomib] + COc1cc2c(Oc3ccc(NC(=O)C4(C(=O)Nc5ccc(F)cc5)CC4)cc3F)ccnc2cc1OCCCN1CCOCC1 [Foretinib] (partner 0.25 µM)
How it was run: as §1

[1] = compound: CC1=CC(=NN1)NC2=CC(=NC(=N2)/C=C/C3=CC=CC=C3)N4CCN(CC4)C + CS(=O)(=O)N1CCN(Cc2cc3nc(-c4cccc5[nH]ncc45)nc(N4CCOCC4)c3s2)CC1 [Pictilisib] (partner 1 µM)
How it was run: as §1

Row | Cell Line | relative viability (Obatoclax + Alpelisib; first compound 0.01 µM) | relative viability (Obatoclax + Alpelisib; first compound 0.03162 µM) | relative viability (Obatoclax + Alpelisib; first compound 0.1 µM) | relative viability (Obatoclax + Alpelisib; first compound 0.3162 µM) | relative viability (Obatoclax + Alpelisib; first compound 1 µM) | relative viability (Obatoclax + Bortezomib; first compound 0.01 µM) | relative viability (Obatoclax + Bortezomib; first compound 0.03162 µM) | relative viability (Obatoclax + Bortezomib; first compound 0.1 µM) | relative viability (Obatoclax + Bortezomib; first compound 0.3162 µM) | relative viability (Obatoclax + Bortezomib; first compound 1 µM) | relative viability (Bortezomib + Foretinib; first compound 0.0002 µM) | relative viability (Bortezomib + Foretinib; first compound 0.000632 µM) | relative viability (Bortezomib + Foretinib; first compound 0.002 µM) | relative viability (Bortezomib + Foretinib; first compound 0.006325 µM) | relative viability (Bortezomib + Foretinib; first compound 0.02 µM) | relative viability ([1]; first compound 0.08 µM) | relative viability ([1]; first compound 0.253 µM) | relative viability ([1]; first compound 0.8 µM) | relative viability ([1]; first compound 2.53 µM) | relative viability ([1]; first compound 8 µM)
1 | NCI-H2087 | 0.738 | 1.18 | 0.953 | 0.854 | 0.354 | 0.645 | 0.775 | 0.665 | 0.779 | 0.335 | 0.972 | 0.975 | 0.794 | 0.0688 | 0.059 | 0.828 | 0.542 | 0.877 | 0.447 | 0.141
2 | HOP-62 | 0.903 | 0.771 | 0.951 | 1.02 | 1.21 | 0.909 | 0.787 | 0.639 | 0.739 | 0.719 | 0.972 | 1.07 | 0.863 | 0.134 | 0.0751 | 0.558 | 0.458 | 0.919 | 0.429 | 0.0856
3 | EKVX | 0.941 | 0.9 | 1.02 | 0.853 | 0.891 | 1.05 | 1.01 | 1.03 | 1.01 | 1.13 | 0.847 | 0.843 | 0.897 | 0.872 | 0.21 | 0.438 | 0.478 | 0.488 | 0.31 | 0.115
4 | EMC-BAC-2 | 0.658 | 0.797 | 0.744 | 0.738 | 0.696 | 1.15 | 1.04 | 1.03 | 1.1 | 1.16 | 0.993 | 1.03 | 1.13 | 0.279 | 0.203 | 0.507 | 0.589 | 0.468 | 0.325 | 0.154
5 | EBC-1 | 0.82 | 0.92 | 0.902 | 0.435 | 0.251 | 0.637 | 0.602 | 0.481 | 0.341 | 0.232 | 0.11 | 0.106 | 0.0957 | 0.0676 | 0.0605 | 0.394 | 0.451 | 0.392 | 0.143 | 0.0897
6 | HARA | 0.942 | 0.529 | 0.916 | 0.802 | 0.78 | 1.1 | 0.759 | 1.17 | 1.02 | 0.724 | 0.851 | 0.866 | 0.928 | 0.0716 | 0.0683 | 0.396 | 0.37 | 0.348 | 0.204 | 0.0756
7 | LU99A | 0.626 | 0.641 | 0.567 | 0.3 | 0.2 | 1.12 | 1.13 | 1.03 | 0.357 | 0.224 | 0.887 | 0.721 | 0.812 | 0.755 | 0.227 | 0.328 | 0.296 | 0.284 | 0.157 | 0.142
8 | NCI-H441 | 0.662 | 0.822 | 0.632 | 0.419 | 0.327 | 0.378 | 0.498 | 0.413 | 0.291 | 0.22 | 0.801 | 0.987 | 0.563 | 0.188 | 0.168 | 0.463 | 0.554 | 0.265 | 0.172 | 0.0803
9 | NCI-H23 | 0.667 | 0.607 | 0.691 | 0.604 | 0.569 | 1.03 | 0.873 | 1.13 | 0.804 | 0.762 | 0.895 | 0.972 | 0.861 | 0.166 | 0.14 | 0.462 | 0.48 | 0.382 | 0.296 | 0.134
10 | NCI-H647 | 1.09 | 1.3 | 0.875 | 0.265 | 0.148 | 0.902 | 0.853 | 0.541 | 0.351 | 0.143 | 0.904 | 1.3 | 1.25 | 0.0379 | 0.0377 | 0.438 | 0.48 | 0.377 | 0.0644 | 0.051
11 | 201T | 1 | 0.983 | 1.02 | 1.04 | 1.08 | 1.09 | 1.01 | 1.13 | 1.1 | 1.1 | 1.05 | 1.11 | 0.793 | 0.297 | 0.172 | 0.668 | 0.683 | 0.67 | 0.643 | 0.607
12 | NCI-H1299 | 1.01 | 1.1 | 0.985 | 1.04 | 1 | 0.969 | 1.05 | 0.982 | 1 | 0.93 | 1.09 | 1.06 | 1.17 | 0.416 | 0.121 | 0.725 | 0.853 | 0.596 | 0.107 | 0.0675
13 | NCI-H1734 | 0.682 | 0.619 | – | 0.57 | 0.511 | 0.928 | 0.818 | – | 0.914 | 0.836 | 0.786 | 0.9 | 0.759 | 0.176 | 0.109 | 0.463 | 0.422 | 0.456 | 0.214 | 0.122
14 | NCI-H596 | 0.481 | 0.437 | 0.469 | 0.402 | 0.401 | 1.12 | 0.974 | 0.812 | 0.696 | 0.674 | 0.88 | 0.892 | 0.613 | 0.17 | 0.138 | 0.406 | 0.417 | 0.388 | 0.253 | 0.271
